# pIC50: −log10 of the molar value.
# Target: T1, human DGAT1 (Homo sapiens, UniProt O75907)
# T1 construct: FLAG (N); made in house; host or cells: SF9 insect cells (baculovirus, pFastBac); total cell membranes used as the enzyme source
# T1 sequence (O75907 1-488): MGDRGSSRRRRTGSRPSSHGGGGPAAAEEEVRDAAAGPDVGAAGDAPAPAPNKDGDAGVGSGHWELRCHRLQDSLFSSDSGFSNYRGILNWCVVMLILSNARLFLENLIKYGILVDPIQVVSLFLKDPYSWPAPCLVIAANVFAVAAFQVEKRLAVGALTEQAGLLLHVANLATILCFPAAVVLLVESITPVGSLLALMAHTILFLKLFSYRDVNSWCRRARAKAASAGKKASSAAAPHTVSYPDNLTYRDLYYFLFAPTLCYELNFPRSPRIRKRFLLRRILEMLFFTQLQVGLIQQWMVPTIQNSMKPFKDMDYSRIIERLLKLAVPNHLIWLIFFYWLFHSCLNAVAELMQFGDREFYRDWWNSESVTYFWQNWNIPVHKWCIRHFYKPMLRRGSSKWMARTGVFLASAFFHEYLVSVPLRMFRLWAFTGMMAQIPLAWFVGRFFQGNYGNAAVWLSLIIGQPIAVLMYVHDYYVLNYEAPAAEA
# Assay: DGAT1 FlashPlate inhibition assay with DGAT1 membrane preparations
# Type: biochemical
# Conditions: IC50 values expressed in M; pIC50 = -logIC50; inhibition of DGAT1 activity
# Description: The inhibiting activity of the present compounds on DGAT1 activity was screened in a single well procedure assay using DGAT1 comprising membrane preparations and DGAT1 substrate comprising micelles and determining formed radio-active triacylglycerol coming in close proximity of a flashplate surface by radioluminescence.
# Said assay is described in full detail in WO2006/067071, the content of which is incorporated herein by reference.
# By DGAT1 activity is meant the transfer of coenzyme A activated fatty acids to the 3-position of 1,2-diacylglycerols, thus forming a triglyceride molecule, by enzyme DGAT1.
# human DGAT1 (NM012079.2) was cloned into the pFastBac vector, containing translation start, a FLAG-tag at the N-terminus as described in literature and a viral Kozak sequence (AAX) preceding the ATG to improve expression in insect cells. Expression was done as described in literature (Cases, S., Smith, S. J., Zheng, Y., Myers H. M., Lear, S. R., Sande, E., Novak, S., Collins, C., Welch, C. B., Lusis, A. J., Erickson, S. K. and Farese, R. V. (1998) Proc. Natl. Acad. Sci. USA 95, 13018-13023.) using SF9 cells.
# 72 h transfected SF9 cells were collected by centrifugation (13000 rpm-15 min-4° C.) and lysed in 2×500 ml lysis buffer (0.1M Sucrose, 50 mM KCl, 40 mM KH2PO4, 30 mM EDTA pH 7.2. Cells were homogenized by cell disruptor. After centrifugation 1380 rpm-15 min-4° C. (SN discarded), pellet was resuspended in 500 ml lysis buffer and total cell membranes collected by ultracentrifugation at 34000 rpm (100 000 g) for 60 min (4° C.). The collected membranes were resuspended in lysis buffer, divided in aliquots and stored with 10% glycerol at −80° C. until use.
# Add 1 ml dioleoyl-sn-glycerol (10 mg/ml) to 10 ml of L-α-phosphatidylcholine (1 mg/ml) and 10 ml of L-α-phosphatidyl-L-serine (1 mg/ml) in a thick glass recipient. Evaporate under nitrogen and put on ice for 15 minutes. Reconstitute in 10 ml Tris/HCl (10 mM, pH 7.4) by sonication on ice. The sonification process consists of sonification cycles of 10 seconds in the sonification bath followed by 10 seconds cool down on ice and repeating this sonification cycle till a homogeneous solution is obtained (takes about 15 minutes). The thus obtained micelles are stored at −20° C. till later use and contain DAG at a final concentration of 1.61 mM.
# • 50 mM Tris-HCl (pH 7.4), 150 mM MgCl2, 1 mM EDTA, 0.2% BSA. b) N-ethylmaleimide, 5M • Dissolve 5 g into a final volume of 8 ml DMSO 100% and store at −20° C. in aliquots till later use. c) Substrate mix (for 1 384 well plate=3840 μl) • 612 μl micelles stock (51 μM final) • 16.6 μl oleoylCoA 9.7 mM • 23 μl [^3H]-oleoylCoA (49 Ci/mmol, 500 μCi/ml) • 3188.4 μl Tris pH 7.4, 10 mM d) Enzyme mix (for 1 384 well plate=3520 μl) (5 μg/ml) • Add 11.73 μl of DGAT membrane stock (1500 μg/ml stock) to 3508 μl assay buffer. e) Stop mix (for 1 384 well plate=7.68 ml) (250 mM) • Add 384 μl of N-ethylmaleimide (5M) to 3.456 ml DMSO 100%, and further dilute 3.84 ml of said solution with 3.84 ml DMSO 10%. Method
# DGAT activity in membrane preparations was assayed in 50 mM Tris-HCl (pH 7.4), 150 mM MgCl2, 1 mM EDTA and 0.2% BSA, containing 50 μM DAG, […] PC/PS and 8.4 μM [^3H]-oleoylCoA (at a specific activity of 30 nCi/well) in a final volume of 50 μl in 384-well format using the red shifted Basic Image FlashPlate™ (Perkin Elmer Cat. No. SMP400).
# In detail, 10 μl enzyme mix and 10 μl substrate mix were added to 30 μl of assay buffer, optionally in the presence of 1 μl DMSO (blank and controls) or 1 μl of the compound to be tested. This reaction mixture was incubated for 120 minutes at 37° C. and the enzymatic reaction stopped by adding 20 μl of the stop mix. The plates were sealed and the vesicles allowed to settle overnight at room temperature. Plates were centrifuged for 5 minutes at 1500 rpm and measured in Leadseeker. […]
row,Structure (SMILES),pIC50
1,CCOc1ccccc1NC(=O)N1CCN(c2ccc(NC(=O)c3ccccc3-c3ccc(C(F)(F)F)cc3)cc2)CC1 [Compound 81],5.09
2,CCOC(=O)Cc1cccc(C(=O)Nc2ccc(N3CCN(C(=O)Nc4c(Cl)cc(CN5CCCCC5)cc4Cl)CC3)cc2)c1 [Compound 138],7.94
3,Cc1ccc(C(=O)Nc2ccc(C3CCN(C(=O)Nc4c(Cl)cccc4Cl)CC3)cc2)c(-c2ccc(C(F)(F)F)cc2)c1 [Compound 58],6.45
4,CC(C)(C)c1ccc(-c2ccccc2C(=O)Nc2ccc(N3CCN(C(=O)Nc4c(Cl)cccc4Cl)CC3)cc2)cc1 [Compound 35],6.93
5,O=C(Nc1ccc(N2CCN(C(=O)Nc3c(Cl)cccc3Cl)CC2)cc1)c1ccc(-c2nnn[nH]2)cc1 [Compound 33],5.71
6,COC(=O)c1ccccc1NC(=O)N1CCN(c2ccc(NC(=O)c3ccccc3-c3ccc(C(F)(F)F)cc3)cc2)CC1 [Compound 86],5.01
7,CCOC(=O)c1cccc(C(=O)Nc2ccc(N3CCN(C(=O)Nc4c(Cl)cccc4Cl)CC3)cc2)c1 [Compound 125],8.55
8,O=C(Nc1ccc(N2CCN(C(=O)Nc3ccccc3[N+](=O)[O-])CC2)cc1)c1ccccc1-c1ccc(C(F)(F)F)cc1 [Compound 92],5.63
9,Cc1cccc(Cl)c1NC(=O)N1CCC(c2ccc(NC(=O)c3ccccc3-c3ccc(C(F)(F)F)cc3)cc2)CC1 [Compound 113],5.97
10,O=C(Nc1ccc(N2CCN(C(=O)Nc3c(Cl)cccc3Cl)CC2)cc1)c1cccc(N2CCCCS2(=O)=O)c1 [Compound 41],7.72
11,CCCc1ccccc1NC(=O)N1CCN(c2ccc(NC(=O)c3ccccc3-c3ccc(C(F)(F)F)cc3)cc2)CC1 [Compound 76],5.12
12,CC(C)(C)c1ccccc1NC(=O)N1CCN(c2ccc(NC(=O)c3ccccc3-c3ccc(C(F)(F)F)cc3)cc2)CC1 [Compound 78],5.12
13,O=C(Nc1ccc(N2CCN(C(=O)NCCCc3ccccc3)CC2)cc1)c1ccccc1-c1ccc(C(F)(F)F)cc1 [Compound 71],5.45
14,Cc1cccc(C)c1NC(=O)N1CCC(c2ccc(NC(=O)c3ccccc3-c3ccc(C(F)(F)F)cc3)cc2)CC1 [Compound 128],6.18
15,Cc1nnnn1-c1cccc(C(=O)Nc2ccc(N3CCN(C(=O)Nc4c(Cl)cccc4Cl)CC3)cc2)c1 [Compound 31],6.57
16,COc1ccccc1NC(=O)N1CCN(c2ccc(NC(=O)c3ccccc3-c3ccc(C(F)(F)F)cc3)cc2)CC1 [Compound 80],5.26
17,CC(C)(C)NC(=O)N1CCN(c2ccc(NC(=O)c3ccccc3-c3ccc(C(F)(F)F)cc3)cc2)CC1 [Compound 69],5.10
18,Cc1cc(Br)cc(C)c1NC(=O)N1CCC(c2ccc(NC(=O)c3ccccc3-c3ccc(C(F)(F)F)cc3)cc2)CC1 [Compound 115],5.71
19,CC(C)OC(=O)c1ccc(-c2cccc(C(=O)Nc3ccc(N4CCN(C(=O)Nc5c(Cl)cccc5Cl)CC4)cc3)c2)cc1 [Compound 127],7.60
20,CSc1ccccc1NC(=O)N1CCN(c2ccc(NC(=O)c3ccccc3-c3ccc(C(F)(F)F)cc3)cc2)CC1 [Compound 93],5.32
21,CN(C)c1ccc(NC(=O)N2CC=C(c3ccc(NC(=O)c4ccccc4-c4ccc(C(F)(F)F)cc4)cc3)CC2)cc1 [Compound 124],5.17

row,Structure (SMILES),pIC50
1,CCOC(=O)c1ccc(NC(=O)N2CCN(c3ccc(NC(=O)c4ccccc4-c4ccc(C(F)(F)F)cc4)cc3)CC2)cc1 [Compound 72],5.11
2,Cc1cc(C)c(NC(=O)N2CCC(c3ccc(NC(=O)c4ccccc4-c4ccc(C(F)(F)F)cc4)cc3)CC2)c(Cl)c1 [Compound 117],6.50
3,Cc1ccc([N+](=O)[O-])c(NC(=O)N2CCN(c3ccc(NC(=O)c4ccccc4-c4ccc(C(F)(F)F)cc4)cc3)CC2)c1C [Compound 101],6.28
4,O=C(Nc1ccc(N2CCN(C(=O)NCc3ccccc3)CC2)cc1)c1ccccc1-c1ccc(C(F)(F)F)cc1 [Compound 70],5.26
5,O=C(Nc1ccc(N2CCN(C(=O)Nc3c(F)cc(F)cc3Br)CC2)cc1)c1ccccc1-c1ccc(C(F)(F)F)cc1 [Compound 96],6.28
6,O=C(Nc1ccc(N2CCN(C(=O)Nc3c(Cl)cccc3Cl)CC2)cc1)c1ccccc1N1CCS(=O)(=O)CC1 [Compound 42],5.93
7,CCc1ccccc1NC(=O)N1CCN(c2ccc(NC(=O)c3ccccc3-c3ccc(C(F)(F)F)cc3)cc2)CC1 [Compound 75],5.67
8,Cc1cc(C)c(NC(=O)N2CCC(c3ccc(NC(=O)c4ccccc4-c4ccc(C(F)(F)F)cc4)cc3)CC2)c(C)c1 [Compound 112],6.57
9,CCc1nc(C)c(-c2ccccc2C(=O)Nc2ccc(N3CCN(C(=O)Nc4c(Cl)cccc4Cl)CC3)cc2)s1 [Compound 18],7.39
10,Cc1cc(C)c(NC(=O)N2CCN(c3ccc(NC(=O)c4ccccc4-c4ccc(C(F)(F)F)cc4)cc3)CC2)c(C)c1Br [Compound 104],5.70
11,O=C(Nc1cccc(N2CCCC2)c1)c1ccc(N2CCN(C(=O)Nc3c(Cl)cc(CCN4CCCC4)cc3Cl)CC2)cc1 [Compound 129],8.27
12,CCOC(=O)c1ccccc1NC(=O)N1CCN(c2ccc(NC(=O)c3ccccc3-c3ccc(C(F)(F)F)cc3)cc2)CC1 [Compound 87],5.13
13,O=C(Nc1ccc(N2CCN(C(=O)Nc3c(Cl)cccc3Cl)CC2)cc1)c1ccc(-n2cccn2)cc1 [Compound 21],8.05
14,O=C(Nc1ccc(C2CCN(C(=O)Nc3c(Cl)cccc3Cl)CC2)cc1)c1cccc2c1-c1ccccc1C2=O [Compound 63],6.92
15,Cc1nc(C(=O)Nc2ccc(N3CCN(C(=O)Nc4c(Cl)cccc4Cl)CC3)cc2)c(-c2ccc(C(C)C)cc2)s1 [Compound 2],6.95
16,O=C(Nc1ccc(N2CCN(C(=O)Nc3ccccc3I)CC2)cc1)c1ccccc1-c1ccc(C(F)(F)F)cc1 [Compound 91],5.82
17,O=C(Nc1ccc(N2CCN(C(=O)Nc3c(Cl)cccc3Cl)CC2)cc1)c1cccc(N2CCCC2)c1 [Compound 12],8.87
18,CC(C)(C)OC(=O)N1CCCC1C(=O)Nc1ccc(C2CCN(C(=O)Nc3c(Cl)cccc3Cl)CC2)cc1 (centres unmarked) [Compound 51],6.31
19,O=C(Nc1ccc(C2CCN(C(=O)Nc3c(Cl)cccc3Cl)CC2)cc1)C1CSCN1 (centres unmarked) [Compound 48],5.45
20,CCc1nc(C)c(-c2ccccc2C(=O)Nc2ccc(C3CCN(C(=O)Nc4c(Cl)cccc4Cl)CC3)cc2)s1 [Compound 55],7.58

# Reference: patent US9227935B2, “Piperidine/piperazine derivatives” (Janssen Pharmaceutica N.V., priority 2007, dated 2016)
